Data reported in patent EP3324923B1, “COMPOSITIONS AND METHODS USING PALYTHINE” (King's College London, priority 2015, dated 2017).

Columns and labels:
HaCaT keratinocytes [1] = experiment: CPD DNA lesion formation by IHC-IF; assay type: cell-based, human; settings: 20J/cm^2 SSR; palythine 0.3-10%w/v; immediately post exposure; n=3; p<0.0001
Protocol: HaCat keratinocytes were irradiated with 20J/cm^2 of solar simulated UVR radiation with 0% (PBS alone), 0.3%, 4% or 10% of palythine. The relative formation of the CPD DNA lesion was measured by IHC-IF and the relative fluorescent intensity plotted. The data in figure 11 show protection by palythine against solar simulated UVR induced CPD formation by IHC-IF.
The radiation procedure was carried out as described above. Cells were washed, then fixed in 2 % (v/v) paraformaldehyde with 0.5 % (v/v) Triton X-100 in PBS for 30 mins at 4 °C. DNA was then denatured by incubation in 2 M HCl for 10 mins at 37 °C. Nonspecific sites were blocked using blocking buffer of 20 % (v/v) goat serum and 0.1 % (v/v) triton x-100 in PBS for 30 mins at room temperature. The primary antibody used was Anti-CPD (Clone TDM-2) (Cosmobio, Tokyo, Japan) at 1:1000 in blocking buffer for 1 hr at room temperature. Alexafluor 488 was diluted in blocking buffer (1:200 dilution) and incubated for 1 hr at room temperature and finally DAPI was added for 10 mins. Washing was carried out (3x5 mins) between each step.
All assays were performed on HaCat cells grown as a 70-80 % confluent monolayer in multiwell plates. They were washed three times in PBS and covered with palythine dissolved in PBS at differing concentrations (0, 0.1, 0.3 %, 4 % and 10 % w/v). […]

HaCaT keratinocytes [2] = experiment: Single-cell gel electrophoresis (comet assay) of UV-induced DNA damage; assay type: cell-based, human; settings: for percentage change in % DNA in the tail in protected cells compared to unprotected cells: n=3, t-test; for Mean % DNA Damage: 10J/cm^2 UVA
Protocol: This measurement is based on the comet assay (single cell gel electrophoresis) which detects damage to nuclear DNA that result from nucleotide excision repair (NER) and nucleotide photooxidation. Using the lesion specific enzymes T4N5 that recognizes CPD and hOGG1 that recognizes 8-oxoGua, palythine was tested by comparing pure palythine compound with naturally occurring amphoteric MAA mixtures to that of industry accepted sun-filter controls.
Powdered sunscreens were dissolved in PBS (Sigma-Aldrich, UK) at a concentration in which they can dissolve fully (0-0.3%). They were then applied (200ul/well) to wells of a 24 well plate containing a washed monolayer of cells. Cells were then irradiated and the sunscreen removed and washed post treatment.
Irradiation was carried out on cells in monolayers at a distance of 3 cm (Solar Simulator) in cold PBS or PBS + sunscreen. The plate was always placed on a cooling platform at 4°C to avoid overheating of the cells. Unirradiated samples were maintained in PBS for the same time and temperature as irradiated samples.
DNA damage was measured using the comet assay, using lesion specific enzymes to determine the type of damaged produced.
Glass slides are pre-coated with 1% agarose and allowed to dry. Cells were treated with UV +/- sunscreens. Positive controls were treated with ice cold 0.03% Hydrogen Peroxide for 5 minutes, negative controls were kept in the same conditions as the treatments without UV exposure.
After treatment cells were scraped gently with a cell scraper in EDTA solution to help dissociate cells and stop clumping. The cells (40ul) were then added to low melting point (LMP) agarose (160ul) and gently mixed. The final concentration of cells in the LMP agarose was 10,000 cells/100ul of agarose. Then 100ul of the agarose-cell solution was pipetted onto the pre-coated slides and a cover slip was placed onto the gels and left to set for 5-10 minutes then removed. Two replicates were placed on each slide. All steps were carried out on a cooled platform at 4°C. Slides were then places into lysis buffer (2.5M NaCl, 100mM EDTA, 10mM TRIS, 1% sodium sarcosinate, 1% Triton x-100, 10% DMSO) overnight at 4°C in the dark.
Slides were then washed in ice-cold ddH2O (2x5 mins) in the dark and once in ice cold enzyme reaction buffer (0.4mM HEPES, imMKCl, 0.005mM EDTA, 0.02mg/ml BSA) for 5 minutes. After this step different lesions were detected using lesion specific enzymes.
Cylcobutane pyrimidine dimers were measured using the T4 endonuclease V (T4endoV) enzyme. After washing, 50ul of enzyme diluted in reaction buffer (hOGG1- 3.2U/ml, T4EndoV - 0.1U/ml) or reaction buffer alone were added to each gel, a cover slip placed on top and left in a humidity chamber in the dark at 37°C for 45 minutes.
After enzyme treatment coverslips were removed and transferred into ice-cold electrophoresis buffer (10mM NaOH, 200mM EDTA, pH13 in ddH2O) and incubated at 4°C in the dark for 20 minutes. Electrophoresis was then carried out in fresh electrophoresis buffer for 25 minutes at 25V (1V/cm) 300mA, at 4°C in the dark. Slides were then washed in neutralisation buffer (0.4M TRIS, pH7.5) for 2x 10 minutes, and then in ddH2O for 2x 5 minutes and slides were allowed to dry overnight.
The DNA embedded in the slides was stained using Propidium Iodide solution (2.5ug/ml in PBS), 50ul of the solution was added to each gel and cover slip placed over. The slides were then analysed on a Zeiss Axiophot epifluorescence microscope (Carl Zeiss, Germany), with a green excitation filter (536nm) detected with a red emission at 617nm. Pictures covering the whole gel were taken, avoiding the outer edges, using a Nikon camera at a magnification of 10x. The images were then analysed using Comet Score Pro software (Tritek Corp, Summerduck, VA), typically scoring 150 individual comets per condition. […]

Absorbance profile = assay type: physicochemical; settings: Example 14
Protocol: palythine was extracted from the red algae Palmaria decipiens using a methanol extraction (Confirmed by HPLC & LC-MS). The absorbance profile was determined and then the extract was exposed to increasing doses of solar simulated radiation (SSR) from a solar simulator (conforming to COLIPA standards). The absorbance profile was measured to determine photostability. Compositions according to the invention (in this example solutions of palythine) were prepared at different palythine concentrations (0.3% to 10%), as well as controls comprising 0% palythine, and HaCat keratinocytes were irradiated with SSR or UVA radiation through the solutions, which were placed on top of the cells.
Palythine was exposed to increasing doses of solar simulated radiation and absorbance measured. The absorbance spectrum of the palythine was measured between 280-400 nm using a Spectra Max 384 Plus (Molecular Devices; California, USA) spectrophotometer. Referring to figure 18, we show the photostability of palythine after exposure to increasing doses of solar simulated radiation. Palythine (0.0001% w/v palythine extracted from red algae Chondrus yendoi in PBS) was exposed to increasing doses of solar simulated radiation and the absorbance was measured to determine photostability.

With `COC1=C(NCC(=O)O)CC(O)(CO)CC1=N` (stereo not drawn) [palythine] as the molecule, how does the “CPD production compared to irradiated control” value (HaCaT keratinocytes [1]) read?
Its value is “significant reduction”.

What about the “improved protection from DNA damage” value (HaCaT keratinocytes [2]; 0.3% palythine (48% damage) versus Gelyma composition at 4% (76% damage)) of the same molecule?
Its value is 58.33%.

And the DNA damage (HaCaT keratinocytes [2]; 0.3% palythine, from the applicant's data)?
Its DNA damage is 48%.

What about the “percentage change in % DNA in the tail in protected cells compared to unprotected cells” value (HaCaT keratinocytes [2]; 5J/cm^2 solar simulated UVR, 0.3% palythine, figure 9) of the same molecule?
Its value is “significant protection”.

What about the “percentage change in % DNA in the tail in protected cells compared to unprotected cells” value (HaCaT keratinocytes [2]; 20J/cm^2 UVA, 0.3% palythine, figure 10) of the same molecule?
Its value is “significant protection”.

And the “Mean % DNA Damage” value (HaCaT keratinocytes [2]; No Enzyme (single strand breaks / alkali labile sites), 0.1% palythine in PBS, mean percentage of tail DNA, n=1)?
Its value is 14.263%.

What about the “Mean % DNA Damage” value (HaCaT keratinocytes [2]; No Enzyme (single strand breaks / alkali labile sites), 0.3% palythine in PBS, mean percentage of tail DNA, n=1) of the same molecule?
The value was 9.914%.

And the “Mean % DNA Damage” value (HaCaT keratinocytes [2]; T4N5 (cyclobutane pyrimidine dimers, CPDs), 0.1% palythine)?
The value was 26.328%.

And the “Mean % DNA Damage” value (HaCaT keratinocytes [2]; T4N5 (cyclobutane pyrimidine dimers, CPDs), 0.3% palythine)?
The value was 15.345%.

What about the “protection for the DNA lesions tested (general damage, CPD and 8oxoGua)” value (HaCaT keratinocytes [2]; comet assay and IHC-IF, palythine at 0.3% or greater, UVA and SSR induced damage, p=<0.05) of the same molecule?
The value was “significant protection”.

And the “DNA damage caused by UVA and UVB exposure” value (HaCaT keratinocytes [2]; lesion specific enzymes T4N5 (CPD) and hOGG1 (8-oxoGua))?
Its value is “significantly reduces DNA damage”.

And the “absorbing in the UVB and UVA ranges” value (Absorbance profile)?
The value was 290-350 nm.
